Test results from EPA's ToxRefDB 2.

Legend:
rat [1] = settings: Subchronic inhalation toxicity, sprague dawley, Whole-Body, dose end: 13 week, group: systemic
rat [2] = settings: Prenatal developmental toxicity study, wistar, Inhalation, Whole-Body, dose end: 19 GD
rat [3] = settings: Subchronic oral toxicity in rodents, fischer, Water, dose end: 13 week
rabbit [4] = settings: Prenatal developmental toxicity study; dutch; Inhalation; Whole-Body; dose end: 18 GD; group: developmental; developmental / developmental malformation / bone / incomplete ossification + developmental / developmental malformation / bone / …
rabbit [5] = settings: Subchronic inhalation toxicity, new zealand white, Whole-Body, dose end: 13 week, group: systemic
rabbit [6] = settings: Prenatal developmental toxicity study, new zealand white, Inhalation, Whole-Body, dose end: 18 GD
rat [7] = settings: Prenatal developmental toxicity study, wistar, Inhalation, Whole-Body, dose end: 15 GD
mouse [8] = settings: Subchronic oral toxicity in rodents, b6c3f1, Water, dose end: 13 week
rat [9] = settings: Prenatal developmental toxicity study, wistar, Inhalation, Whole-Body, dose end: 19 GD; remark: listed apart in the source
mouse [10] = settings: Carcinogenicity, b6c3f1, Oral, Gavage/Intubation, dose end: 2 year, group: systemic
rat [11] = settings: Carcinogenicity, fischer, Oral, Gavage/Intubation, dose end: 2 year, group: systemic
[12] = systemic / organ weight / spleen / absolute + systemic / organ weight / spleen / relative to body weight
[13] = systemic / organ weight / spleen / absolute + systemic / organ weight / spleen / relative to body weight + systemic / clinical chemistry / …
[14] = group: developmental, developmental / developmental malformation / bone / incomplete ossification + developmental / developmental malformation / bone / knobby + …
[15] = group: maternal, reproductive / reproductive performance / resorptions / resorptions
[16] = group: maternal, reproductive / reproductive performance / resorptions / resorptions + systemic / in life observation / body weight / body weight + systemic…
[17] = group: maternal, reproductive / reproductive performance / estrous cycle / abnormal + reproductive / reproductive performance / estrous cycle / length
[18] = group: systemic, systemic / clinical chemistry / alkaline phosphatase (alp/alk) / alkaline phosphatase (alp/alk)
[19] = group: systemic, systemic / in life observation / body weight / body weight + systemic / in life observation / body weight / body weight gain + systemic / …
[20] = systemic / clinical chemistry / cholesterol / cholesterol
[21] = systemic / clinical chemistry / cholesterol / cholesterol + systemic / hematology / erythrocyte (rbc) count differential / erythrocyte (rbc…
[22] = group: developmental, developmental / developmental malformation / bone / supernumerary + developmental / developmental malformation / heart / [other] + …
[23] = group: maternal, reproductive / reproductive performance / resorptions / resorptions + systemic / in life observation / body weight / body weight gain + …
[24] = group: maternal, reproductive / reproductive performance / resorptions / resorptions + systemic / in life observation / food consumption / food consumption…
[25] = group: developmental, systemic / in life observation / body weight / litter weight
[26] = group: developmental, systemic / in life observation / body weight / litter weight + developmental / developmental malformation / bone / incomplete ossification…
[27] = group: maternal, reproductive / reproductive performance / preimplantation loss / preimplantation loss + reproductive / offspring survival early / live …
[28] = group: maternal, reproductive / reproductive performance / estrous cycle / length
[29] = group: systemic, systemic / in life observation / body weight / body weight gain + systemic / organ weight / testes / absolute + systemic / pathology gross…
[30] = group: maternal, systemic / organ weight / spleen / relative to body weight
[31] = systemic / in life observation / mortality / mortality + systemic / pathology gross / stomach / ulcer + systemic / pathology gross / testes…
[32] = systemic / in life observation / body weight / body weight
[33] = systemic / in life observation / body weight / body weight + systemic / pathology gross / adrenal gland / enlarged

For CCOCCO [2-Ethoxyethanol], the LEL (rat [1]; [12]) was 25 ppm, the NEL (rat [1]; [12]) was < 25 ppm and the LOAEL (rat [1]; [13]) was > 400 ppm. The NOAEL (rat [1]; [13]) was ≥ 400 ppm, the LEL (rat [2]; [14]) was 150 ppm and the LOAEL (rat [2]; [14]) was > 649 ppm. For the same compound, the NEL (rat [2]; [14]) was < 150 ppm, the NOAEL (rat [2]; [14]) was ≥ 649 ppm and the LEL (rat [2]; [15]) was 150 ppm. For the same compound, the NEL (rat [2]; [15]) was < 150 ppm, the LOAEL (rat [2]; [16]) was > 649 ppm and the NOAEL (rat [2]; [16]) was ≥ 649 ppm. The LEL (rat [3]; [17]) was 804 mg/kg/day, the LOAEL (rat [3]; [17]) was > 2060 mg/kg/day and the NEL (rat [3]; [17]) was 466 mg/kg/day. For the same compound, the NOAEL (rat [3]; [17]) was ≥ 2060 mg/kg/day, the LEL (rat [3]; [18]) was 109 mg/kg/day and the NEL (rat [3]; [18]) was < 109 mg/kg/day. For the same compound, the LOAEL (rat [3]; [19]) was 792 mg/kg/day, the NOAEL (rat [3]; [19]) was 400 mg/kg/day and the LEL (rabbit [4]) was 175 ppm. For the same compound, the LOAEL (rabbit [4]) was > 175 ppm, the NEL (rabbit [4]) was 50 ppm and the NOAEL (rabbit [4]) was ≥ 175 ppm. For the same compound, the LEL (rabbit [5]; [20]) was 25 ppm, the NEL (rabbit [5]; [20]) was < 25 ppm and the LOAEL (rabbit [5]; [21]) was > 400 ppm. The NOAEL (rabbit [5]; [21]) was ≥ 400 ppm, the LEL (rabbit [6]; [22]) was 160 ppm and the LOAEL (rabbit [6]; [22]) was > 617 ppm. The NEL (rabbit [6]; [22]) was < 160 ppm, the NOAEL (rabbit [6]; [22]) was ≥ 617 ppm and the LOAEL (rabbit [6]; [23]) was > 617 ppm. For the same compound, the NOAEL (rabbit [6]; [23]) was ≥ 617 ppm, the LEL (rabbit [6]; [24]) was 160 ppm and the NEL (rabbit [6]; [24]) was < 160 ppm. For the same compound, the LEL (rat [7]; [25]) was 10 ppm, the NEL (rat [7]; [25]) was < 10 ppm and the LOAEL (rat [7]; [26]) was > 250 ppm. The NOAEL (rat [7]; [26]) was ≥ 250 ppm, the LEL (rat [7]; [27]) was 10 ppm and the LOAEL (rat [7]; [27]) was > 250 ppm. The NEL (rat [7]; [27]) was < 10 ppm, the NOAEL (rat [7]; [27]) was ≥ 250 ppm and the LEL (mouse [8]; [28]) was 722 mg/kg/day. For the same compound, the LOAEL (mouse [8]; [28]) was > 11200 mg/kg/day, the NEL (mouse [8]; [28]) was < 722 mg/kg/day and the NOAEL (mouse [8]; [28]) was ≥ 11200 mg/kg/day. The LOAEL (mouse [8]; [29]) was 5120 mg/kg/day, the NOAEL (mouse [8]; [29]) was 2000 mg/kg/day and the LEL (mouse [8]; group: systemic, systemic / pathology microscopic / adrenal gland / hypertrophy) was 2720 mg/kg/day. For the same compound, the NEL (mouse [8]; group: systemic, systemic / pathology microscopic / adrenal gland / hypertrophy + systemic / in life observation / body weight / body weight gain + systemic…) was 1300 mg/kg/day, the LEL (rat [9]; [14]) was 202 ppm and the LOAEL (rat [9]; [14]) was > 767 ppm. For the same compound, the NEL (rat [9]; [14]) was < 202 ppm, the NOAEL (rat [9]; [14]) was ≥ 767 ppm and the LOAEL (rat [9]; [16]) was > 767 ppm. The NOAEL (rat [9]; [16]) was ≥ 767 ppm, the LEL (rat [9]; [30]) was 202 ppm and the NEL (rat [9]; [30]) was < 202 ppm. For the same compound, the LOAEL (mouse [10]; [31]) was > 2000 mg/kg/day, the NEL (mouse [10]; [31]) was 500 mg/kg/day and the NOAEL (mouse [10]; [31]) was ≥ 2000 mg/kg/day. The LEL (mouse [10]; systemic / pathology gross / testes / reduced size) was 1000 mg/kg/day, the LOAEL (rat [11]; [32]) was 500 mg/kg/day and the NOAEL (rat [11]; [32]) was < 500 mg/kg/day. The LEL (rat [11]; [33]) was 500 mg/kg/day and the NEL (rat [11]; [33]) was < 500 mg/kg/day.
